What was measured:
Assay type in all cases: cell-based
[1] = molecular target: T1, HRH2 (Homo sapiens, UniProt P25021); experiment: H2 blockade assay: cAMP assay, antagonist mode (agonist challenge at EC80); details: for antagonist activity against H2 (in words): in-vitro
Experimental: The cAMP assays can monitor the activation of a GPCR via Gi and Gs secondary messenger signalling in a homogenous, non-imaging assay format using, for example, a technology developed by DiscoverX called Enzyme Fragment Complementation (EFC) with β-galactosidase (β-Gal) as the functional reporter.
The cannabinoid-based pharmaceutical composition according to FIG. 1 was subjected to an H2 blockade assay. For antagonist determination, cells were pre-incubated with sample followed by agonist challenge at the EC80 concentration. Media was aspirated from cells and replaced with 10 μL 1:1 BSS/Hepes: cAMP XS+ Ab reagent. 5 μL of 4X compound was added to the cells and incubated at […] or room temperature for 30 minutes. 5 μL of 4X EC80 agonist was added to cells and incubated at 37° C. or room temperature for 30 or 60 minutes.
The enzyme is split into two complementary portions, Enzyme Acceptor (EA) and Enzyme Donor (ED). ED is fused to cAMP and in the assay competes with cAMP generated by cells for binding to a cAMP-specific antibody. Active β-Gal is formed by complementation of exogenous EA to any unbound ED-cAMP.

[2] = molecular target: T2, HRH1 (Homo sapiens, UniProt P35367); experiment: Calcium Flux assay, agonist mode; details: for % Response Average / % Response Replicate 1 / % Response Replicate 2: 10 uM, Calcium Flux, HRH1, Agonist mode
T2 sequence (P35367 whole entry): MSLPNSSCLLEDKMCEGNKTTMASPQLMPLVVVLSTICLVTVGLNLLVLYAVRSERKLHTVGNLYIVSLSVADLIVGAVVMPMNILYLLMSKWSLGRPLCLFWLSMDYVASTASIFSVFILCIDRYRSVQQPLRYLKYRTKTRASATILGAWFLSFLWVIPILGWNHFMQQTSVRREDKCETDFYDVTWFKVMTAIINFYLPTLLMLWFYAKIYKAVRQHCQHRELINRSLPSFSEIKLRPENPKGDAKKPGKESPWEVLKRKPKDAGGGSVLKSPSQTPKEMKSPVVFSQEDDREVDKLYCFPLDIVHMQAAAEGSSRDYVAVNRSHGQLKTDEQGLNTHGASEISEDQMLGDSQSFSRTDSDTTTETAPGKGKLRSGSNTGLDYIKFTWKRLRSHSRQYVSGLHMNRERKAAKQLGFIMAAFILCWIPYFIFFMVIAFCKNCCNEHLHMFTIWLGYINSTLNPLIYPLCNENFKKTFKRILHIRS

[3] = molecular target: T2, HRH1; experiment: Calcium Flux assay, antagonist mode; details: for % Response Average / % Response Replicate 1 / % Response Replicate 2: 10 uM, Calcium Flux, HRH1, Antagonist mode; for antagonist activity against H1 (in words): single concentration of 10 μM
[4] = molecular target: T1, HRH2; experiment: cAMP assay, agonist mode; details: for % Response Average / % Response Replicate 1 / % Response Replicate 2: 10 uM, cAMP, HRH2, Agonist mode
[5] = 10 uM, cAMP, HRH2, Antagonist mode

T1 sequence (P25021 whole entry, the tested form may be a part): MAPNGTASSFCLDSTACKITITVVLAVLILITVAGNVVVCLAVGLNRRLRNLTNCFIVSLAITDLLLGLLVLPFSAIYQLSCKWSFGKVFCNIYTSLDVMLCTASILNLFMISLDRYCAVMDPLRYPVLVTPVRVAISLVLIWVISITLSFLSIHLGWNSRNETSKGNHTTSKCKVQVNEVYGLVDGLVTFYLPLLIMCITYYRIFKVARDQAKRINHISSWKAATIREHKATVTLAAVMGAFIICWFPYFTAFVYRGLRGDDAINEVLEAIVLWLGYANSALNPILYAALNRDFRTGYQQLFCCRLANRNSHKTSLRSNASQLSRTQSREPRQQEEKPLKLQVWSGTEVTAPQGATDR

With `C=C(C)[C@@H]1CCC(C)=C[C@H]1c1c(O)cc(CCCCC)cc1O` [CBD, Cannabidiol] the IC50 ([1]; dose-response / concentration dependent assay) was 1.53 µM, the “antagonist activity against H2 (in words)” value [1] was “potent antagonist” and the inhibition at 10 µM ([1]; preliminary assay, single concentration of 10 μM, read-out: inhibited H2 by %) was 91.5%. For the same compound, the “% Response Average” value [2] was 0.3%, the “% Response Replicate 1” value [2] was 0.3% and the “% Response Replicate 2” value [2] was 0.2%. For the same compound, the “agonist activity against H1 (in words)” value ([2]; single concentration of 10 μM) was “no agonist or antagonist activity”, the “% Response Average” value [3] was 10.1% and the “% Response Replicate 1” value [3] was 7.6%. For the same compound, the “% Response Replicate 2” value [3] was 12.5%, the “antagonist activity against H1 (in words)” value [3] was “no agonist or antagonist activity” and the “% Response Average” value [4] was 5.1%. For the same compound, the “% Response Replicate 1” value [4] was 4.7%, the “% Response Replicate 2” value [4] was 5.5% and the “agonist activity against H2 (in words)” value ([4]; single concentration of 10 μM) was “no agonist activity”.

For `CCCCCc1cc(O)c2c(c1)OC(C)(C)[C@@H]1CCC(C)=C[C@@H]21` [THC, Tetrahydrocannabinol, reference compound], the “% Response Average” value [1, 5] was 7.7%, the “% Response Replicate 1” value [1, 5] was −2.0% and the “% Response Replicate 2” value [1, 5] was 17.3%. The “antagonist activity against H2 (in words)” value [1] was “none”, the “% Response Average” value [2] was −0.7% and the “% Response Replicate 1” value [2] was −0.5%. The “% Response Replicate 2” value [2] was −0.9%, the “% Response Average” value [3] was 78.2% and the “% Response Replicate 1” value [3] was 77.0%. The “% Response Replicate 2” value [3] was 79.3%, the “antagonist activity against H1 (in words)” value [3] was “showed antagonist activity” and the “% Response Average” value [4] was 3.2%. The “% Response Replicate 1” value [4] was 4.3% and the “% Response Replicate 2” value [4] was 2.0%.
